The source of these data is ChEMBL document CHEMBL1921688, “Alkaloids from Chelidonium majus and their inhibitory effects on LPS-induced NO production in RAW264.7 cells” (Bioorg Med Chem Lett, 2011).

The structures appear in SMILES notation. Active and inactive are the calls of the source. The rule behind the calls is not given here. Where only a bound is given, the exact number is not on record here.

Series [1] concerns RAW264.7. Nature of the series: Antiinflammatory activity in mouse RAW264.7 cells assessed as inhibition of LPS-induced COX2 promoter activity. Format: functional, cell-based.
The subject of series [2] is RAW264.7. Kind of series: Antiinflammatory activity in mouse RAW264.7 cells assessed as inhibition of LPS-induced iNOS production at 1 uM after 18 hrs by Western blot analysis. In kind it is functional, cell-based. A general note: In western blotting, separated proteins are transferred to a membrane and probed.
Series [3] concerns RAW264.7. Kind of series: Cytotoxicity against mouse RAW264.7 cells assessed as cell viability at 50 uM after 24 hrs by MTT assay. Format: cell-based. The following applies: raw264.7, 24 h.
Series [4] deals with RAW264.7. Kind of series: Antiinflammatory activity in mouse RAW264.7 cells assessed as inhibition of LPS-induced COX2 production after 18 hrs by Western blot analysis. Format: functional, cell-based.
For series [5], the system named is RAW264.7. Nature of the series: Antiinflammatory activity in mouse RAW264.7 cells assessed as inhibition of LPS-induced COX2 production at 3 uM after 18 hrs by Western blot analysis. In kind it is functional, cell-based.
The subject of series [6] is RAW264.7. Kind of series: Antiinflammatory activity in mouse RAW264.7 cells assessed as inhibition of LPS-induced iNOS promoter activity. Format: functional, cell-based.
For series [7], the system named is RAW264.7. Nature of the series: Antiinflammatory activity in mouse RAW264.7 cells assessed as inhibition of LPS-induced nitric oxide production after 24 hrs by griess assay. In kind it is functional, cell-based. The following applies: RAW264.7, 24 h. On the technique in general: The Griess reaction detects nitrite, a stable product of nitric oxide.
For series [8], the system named is RAW264.7. Kind of series: Antiinflammatory activity in mouse RAW264.7 cells assessed as inhibition of LPS-induced iNOS production after 18 hrs by Western blot analysis. In kind it is functional, cell-based.
Series [9] concerns RAW264.7. Kind of series: Antiinflammatory activity in mouse RAW264.7 cells assessed as inhibition of LPS-induced iNOS production at 3 uM after 18 hrs by Western blot analysis. In kind it is functional, cell-based.

As usually defined, the IC50 is the concentration that gives 50% inhibition. For `CN1c2c(ccc3cc4c(cc23)OCO4)-c2ccc3c(c2C1O)OCO3` (stereo not given), the inhibition result with RAW264.7 [1], in the series on RAW264.7 [2], in the series with RAW264.7 [5] and in the series with RAW264.7 [6] was “Active” in each case. Moreover, in the series on RAW264.7 [3], the Activity result was “Non-toxic”. Also, the inhibition result in the series on RAW264.7 [4] and in the series with RAW264.7 [8] was “Dose-dependent effect” in each case. The IC50 in the series on RAW264.7 [7] is 4.5 µM.
Take `COC(=O)CC1c2c(ccc3c2OCO3)-c2ccc3cc4c(cc3c2N1C)OCO4` (stereo not given): the Activity entry with RAW264.7 [3] was “Non-toxic”. Further, the IC50 in the series on RAW264.7 [7] was greater than 50 µM.
As for `COc1ccc2cc3[n+](cc2c1OC)CCc1cc2c(cc1-3)OCO2` [BERBERINE], the Activity entry in the series with RAW264.7 [3] is “Non-toxic”. For the same compound, the IC50 in the series with RAW264.7 [7] is greater than 30 µM.
On to `CN1Cc2c(ccc3c2OCO3)[C@@H]2[C@H]1c1cc3c(cc1C[C@@H]2O)OCO3` [CHELIDONINE], for which the inhibition result in the series with RAW264.7 [1], with RAW264.7 [9], in the series on RAW264.7 [5] and in the series with RAW264.7 [6] was “Active” in each case. The Activity result in the series on RAW264.7 [3] is on record as “Non-toxic”. For the same compound, the inhibition result with RAW264.7 [4] and with RAW264.7 [8] was “Dose-dependent effect” in each case. The IC50 in the series on RAW264.7 [7] worked out at 7.3 µM.
Consider `O[C@@H]1Cc2cc3c(cc2[C@@H]2NCc4c(ccc5c4OCO5)[C@H]12)OCO3` [NORCHELIDONINE], for which, in the series on RAW264.7 [3], the Activity entry is “Non-toxic”. Besides, the IC50 in the series with RAW264.7 [7] amounted to 16.5 µM.
With `CN1CCc2cc3c(cc2C(=O)Cc2ccc4c(c2C1)OCO4)OCO3` [PROTOPINE], the Activity result in the series on RAW264.7 [3] is recorded as “Non-toxic”.
For `c1cc2c(c3c1C[C@H]1c4cc5c(cc4CCN1C3)OCO5)OCO2` [STYLOPINE], in the series with RAW264.7 [3], the Activity entry is “Non-toxic”. For the same compound, the IC50 in the series on RAW264.7 [7] is greater than 50 µM.
